Assay [1] can be described thus: Therapeutic duration of action of an effective immediate release dose, from dosing instructions in product labeling. The method, then:
As used herein, "ATDAIRD" shall mean the average therapeutic duration of action of an effective immediate release dose" of a particular active ingredient. For example, the typical duration of action of an immediate release dose of ibuprofen or ketoprofen is about 4 to about 6 hours. […] The therapeutic duration of action of a particular active ingredient can readily be determined from the dosing instructions in the labeling for immediate release products containing that particular active ingredient.

Assay [2] relates to moderate to severe post-operative dental pain. In words: PK/PD dental pain study, pain relief scores and pain intensity differences over a 12 hour observation period. It counts as in vivo, human. How it is done: A double-blind, randomized, parallel, placebo-controlled, single center, PK/PD dental pain study was conducted over a 12 hour observation period to evaluate the pharmacokinetic, pharmacodynamic, efficacy and safety profiles of certain ibuprofen dosing regimens. Specifically, a single dose of 600 mg ibuprofen extended release caplets was compared with equivalent total doses of ibuprofen immediate release 200 mg caplets administered in three different dosing regimens as well as placebo in the treatment of moderate to severe post-operative dental pain.
The ibuprofen was administered as ibuprofen extended release 600 mg caplets or one or more ibuprofen immediate release 200 mg caplets.
The patients evaluated in this study consisted of male or non-pregnant and non-lactating female out-patient volunteers, 16 years of age or older, complaining of moderate to severe pain following the surgical extraction of three or four third molars with at least one partial or complete bony impacted third mandibular molar. The term impacted included: partial bony impaction, bony impaction, or complicated bony impaction. A total of 210 patients were entered into the study. 208 patients were eligible for the efficacy analyses.
All patients who met the entrance criteria were enrolled in one of two study sub-groups. One sub-group of patients had both pharmacokinetic and pharmacodynamic evaluation (PK group). The other sub-group of patients had only the analgesic efficacy evaluations (non-PK group). A separate randomization schedule was used for each of the two sub-groups. Patients from both subgroups were assigned at random to one of the five following treatments:
Patients' assessments of pain intensity and pain relief as well as blood samples for plasma ibuprofen analysis were obtained at the study site at hours 0, 0.25, 0.5, 1, 1.5, 2, 2.5, 3, 4, 4.5, 5, 6, 7, 8, 8.5, 9, 10, 11 and 12. A stopwatch technique was used to measure the onset of meaningful pain relief.

Consider three compounds from patent publication EP1605929B1, “NON-STEROIDAL ANTI-INFLAMMATORY DRUG DOSING REGIMEN” (McNeil-PPC, Inc., priority 2003, dated 2004).

Structures are written as SMILES.

Consider `CC(C(=O)O)c1cccc(C(=O)c2ccccc2)c1` (centres unmarked) [ketoprofen], for which, in assay [1], the “ATDAIRD (average therapeutic duration of action of an effective immediate release dose)” value (“ATDAIRD” below) was determined as 5 h.

As for `COc1ccc2cc([C@H](C)C(=O)O)ccc2c1` [naproxen], in assay [1], the “ATDAIRD” value was found to be 10 h.

For `CC(C)Cc1ccc(C(C)C(=O)O)cc1` (centres unmarked) [ibuprofen, 2-(4-isobutylphenyl)-propionic acid], the “ATDAIRD” value in assay [1] amounted to 5 h. In addition, the pain relief entry is recorded as “excellent pain relief” in assay [2] (400/200/0 administration (immediate release, 400 mg at 0 hour; 200 mg at 4 hours), entire 12 hour study period, Figure 2); “superior pain relief over the other treatments” in assay [2] (400/200/0 treatment (immediate release, 400 mg at 0 hour; 200 mg at 4 hours), first four hours, Figure 2); “superior pain relief over the other treatments” in assay [2] (600/0/0 immediate release treatment (600 mg single dose at 0 hour), first four hours, Figure 2). Further, the pain relief scores entry in assay [2] (400/200/0 treatment, 4 to 12 hour interval, no further ibuprofen after the first four hours, Figure 2) is “highest pain relief scores”. Also, the “pain intensity differences (PID)” value in assay [2] (400/200/0 treatment, 12 hour study period, particularly after the four hour mark, Figure 3) is “best PID”.
